Series [1] has as its target T1, human P2X3 receptor (Homo sapiens, UniProt P56373).
T1 construct: expressed in transfected cells
T1 sequence (P56373 1-397): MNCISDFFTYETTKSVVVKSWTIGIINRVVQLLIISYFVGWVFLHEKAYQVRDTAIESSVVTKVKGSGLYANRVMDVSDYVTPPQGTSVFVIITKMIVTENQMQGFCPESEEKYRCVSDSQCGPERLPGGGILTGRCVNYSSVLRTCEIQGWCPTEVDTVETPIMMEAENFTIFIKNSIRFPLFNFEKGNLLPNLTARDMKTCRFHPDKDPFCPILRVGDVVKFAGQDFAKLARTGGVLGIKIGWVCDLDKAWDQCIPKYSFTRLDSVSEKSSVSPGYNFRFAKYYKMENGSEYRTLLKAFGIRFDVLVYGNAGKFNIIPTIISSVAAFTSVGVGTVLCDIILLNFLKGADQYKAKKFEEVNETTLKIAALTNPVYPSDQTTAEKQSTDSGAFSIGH
As to the kind of experiment: Inhibition of ATP-induced calcium fluorescence (Fluo-3, FDSS 3000) in C6BU-1 cells stably expressing human P2X3 receptor. As to conditions: C6BU-1 cell transfected with human P2X3 receptor gene; 40 nM ATP solution; Fluo-3 fluorescence intensity. The class given is cell-based. Here is the method: Stably expressing cell line (C6BU-1 cell transfected with human P2X3 receptor gene (GenBank accession number Y07683)) was used. The cells were seeded in a 96-well microtiter plate at a concentration of 8000 cells/well and cultured in the medium (8.3% fetal bovine serum, 8.3% horse serum, 1% antibiotic and antifungal in DMEM) for one day at 37° C. under 5% carbon dioxide atmosphere. The medium was replaced with 4 μM Fluo-3-AM solution (pH7.5) containing 20 mM HEPES, 137 mM NaCl, 2.7 mM KCl, 0.9 mM MgCl2, 5.0 mM CaCl2, 5.6 mM D-glucose, 2.5 mM probenecid, 10% BSA, and 0.08% Pluronic F-127, and incubated at 37° C. under 5% dioxide carbon atmosphere for one hour. The plate was washed with washing buffer (20 mM HEPES, 137 mM NaCl, 2.7 mM KCl, 0.9 mM MgCl2, 5.0 mM CaCl2, 5.6 mM D-glucose, 2.5 mM probenecid, pH7.5), and each well was added with 40 μL of this buffer. The plate was placed in High-Throughput Screening System FDSS 3000 (Hamamatsu Photonics K.K.). Measurement of fluorescence intensity by FDSS 3000 was started, and 40 μL of DMSO solutions containing different concentrations of the test compound as prepared by dilution with dilution buffer (20 mM HEPES, 137 mM NaCl, 2.7 mM KCl, 0.9 mM MgCl2, 5.0 mM CaCl2, 5.6 mM D-glucose, 2.5 mM probenecid, 0.1% Pluronic F-127, pH7.5) were dispensed to each well through the built-in automatic dispenser. Five minutes after, 40 nM ATP solution (50 μL) prepared by dilution with the dilution buffer was dispensed through the built-in automatic dispenser, and the measurement of fluorescence intensity was continued for 3 min. For each well, the specific maximum fluorescence intensity was calculated as the ratio of the maximum fluorescence intensity after addition of the ATP solution to the fluorescence intensity at the starting of the measurement. […] FDSS software (Hamamatsu Photonics K.K.) was used for calculation of the specific maximum fluorescence intensity. IC50 was calculated using Microsoft™ Excel™ (Microsoft Corporation) and XLfit™ (ID Business Solutions Ltd.).

What is called melting point is the temperature of the solid-liquid transition. For orientation: IC50 means the concentration needed to halve the response being measured.

`CCOC(=O)c1ccc(N2C(=O)C(=O)C(C(=O)c3ccc(OC)cc3)C2C2CCCCC2)cc1` (centres unmarked) [Example I-2] returned a melting point of 252 to 255 °C. In addition, in series [1], the IC50 came out at 10 nM.

Compound `COc1ccc(C(=O)C2=C(O)C(=O)N(c3ccc(-c4nc(C)no4)cc3)C2c2ccc(F)cc2)cc1` (centres unmarked) [Example I-25] returned a melting point of 236 to 239 °C. Besides, in series [1], the IC50 turned out to be 180 nM.

On to `COc1ccc(C(=O)C2=C(O)C(=O)N(c3ccc(SC(F)(F)F)cc3)C2c2ccc(F)cc2)cc1` (centres unmarked) [Example I-45], for which the melting point is 225 to 228 °C (dec.). Also, in series [1], the IC50 was determined as 580 nM.

As for `COc1ccc(C(=O)C2=C(O)C(=O)N(c3ccc(OC(F)(F)F)cc3)C2c2ccc(F)cc2)cc1` (centres unmarked) [Example I-48], the melting point lay in the range of 241 to 244 °C. Further, the IC50 in series [1] is 970 nM.

In turn, `COc1ccc(C(=O)C2=C(O)C(=O)N(c3ccc(C4=NCCO4)cc3)C2c2ccc(F)cc2)cc1` (centres unmarked) [Example I-69] showed a melting point of 189 to 192 °C. Also, the IC50 in series [1] came out at 3780 nM.

Regarding `CC(C)(C)c1n[nH]c2c1C(C1CCCCC1)N(c1ccc(-c3ccon3)cc1)C2=O` (centres unmarked) [Example I-96, 3-tert-butyl-4-cyclohexyl-5-(4-isoxazol-3-ylphenyl)-4,5-dihydro-1H-pyrrolo[3,4-c]pyrazol-6-one], the melting point lay in the range of 251 to 252 °C. Moreover, the IC50 in series [1] came out at 920 nM.

As for `CC(=O)Nc1ccc(-c2n[nH]c3c2C(C2CCCCC2)N(c2ccc(-c4ccon4)cc2)C3=O)cc1` (centres unmarked) [II-202], in series [1], the IC50 is 1620 nM.

Turning to `COc1ccc(-c2n[nH]c3c2C(C2CC2)N(c2ccc(-c4ccon4)cc2)C3=O)cc1` (centres unmarked) [II-217], the IC50 in series [1] stood at 1870 nM.

The values are drawn from patent publication US8497263B2, “Pyrrolinone derivative and pharmaceutical composition comprising the same” (Shionogi & Co., Ltd., priority 2007, dated 2013).
